The values that follow come from ChEMBL document CHEMBL1146571, “Mycalosides B-I, eight new spermostatic steroid oligoglycosides from the sponge Mycale laxissima” (J Nat Prod, 2003).

This assay can be described thus: Spermatostatic activity against Strongylocentrotus nudus sperm assessed as inhibition of egg fertilization preincubated 15 mins before artificial insemination. Format: functional, cell-based, Mesocentrotus nudus.

≈ marks a conversion by molar mass, not a printed value.

`CC(C)[C@H](C)/C=C/[C@@H](CO)[C@H]1C[C@H](O)[C@H]2[C@@H]3CC=C4[C@@H](O)[C@@H](O[C@@H]5O[C@H](CO)[C@@H](O[C@@H]6O[C@H](CO)[C@H](O)[C@H](O)[C@H]6O)[C@H](O[C@@H]6OC[C@@H](O)[C@@H](O)[C@@H]6O[C@H]6O[C@H](CO)[C@H](O)[C@H](O)[C@H]6O)[C@H]5O)CC[C@]4(C)[C@H]3CC[C@@]21C` [MYCALOSIDE A]: the concentration giving a half-maximal response (EC50) – broadly, the concentration that produces a half-maximal response – was found to be 3.2 µg/mL (≈ 3 µM).

In the case of `CC(C)CCC[C@@H](CO)[C@H]1CC(=O)[C@H]2[C@@H]3CC=C4[C@@H](O)[C@@H](O[C@@H]5O[C@H](CO)[C@@H](O[C@@H]6O[C@H](CO)[C@H](O)[C@H](O)[C@H]6O)[C@H](O[C@@H]6OC[C@@H](O)[C@@H](O)[C@@H]6O[C@H]6O[C@H](CO)[C@H](O)[C@H](O)[C@H]6O)[C@H]5O)CC[C@]4(C)[C@H]3CC[C@]12C` [MYCALOSIDE G], the concentration giving a half-maximal response (EC50) was found to be 3.2 µg/mL (≈ 3.04 µM).
